Organism: Rattus norvegicus
Test: DrugMatrix - Regimen: Daily Repeat
Format: toxicity, organism-based, Sprague-Dawley
Set-up: regimen Daily Repeat, gender Male, age 6-8 weeks
Details: in vivo, po, route oral GAVAGE, vehicle .5 % CMC; for ABSOLUTE BASOPHIL / ABSOLUTE EOSINOPHIL / ABSOLUTE LYMPHOCYTE / ABSOLUTE MONOCYTE / ABSOLUTE SEGMENTED NEUTROPHIL / BASOPHIL / EOSINOPHIL / ERYTHROCYTE COUNT / HEMATOCRIT / HEMOGLOBIN / LEUKOCYTE COUNT / LYMPHOCYTE / MEAN CORPUSCULAR HEMOGLOBIN / MEAN CORPUSCULAR HEMOGLOBIN CONCENTRATION / MEAN CORPUSCULAR VOLUME / MONOCYTE / NEUTROPHIL / NUCLEATED RED BLOOD CELLS / PLATELET COUNT: tissue Blood; for ALANINE AMINOTRANSFERASE / ALBUMIN / ALKALINE PHOSPHATASE / ASPARTATE AMINOTRANSFERASE / BLOOD UREA NITROGEN / CARBON DIOXIDE / CHLORIDE / CHOLESTEROL / CREATINE PHOSPHOKINASE / CREATININE / GLUCOSE / LACTATE DEHYDROGENASE / LIPASE / PHOSPHORUS / POTASSIUM / SODIUM / TOTAL BILIRUBIN / TOTAL PROTEIN: tissue Plasma
[1] = 0 mg/kg, 72 h, dose level Control, time 3 day
[2] = 0 mg/kg, 120 h, dose level Control, time 5 day
[3] = 25 mg/kg, 72 h, dose level Low, time 3 day

## COc1cc(/C=C/C(=O)O)ccc1O [FERULATE]
[1]
  ABSOLUTE BASOPHIL: 0 CELLS/uL
  ABSOLUTE EOSINOPHIL: 284.5 CELLS/uL
  ABSOLUTE LYMPHOCYTE: 11670.5 CELLS/uL
  ABSOLUTE MONOCYTE: 420.83 CELLS/uL
  ABSOLUTE SEGMENTED NEUTROPHIL: 1024.17 CELLS/uL
  BASOPHIL: 0%
  EOSINOPHIL: 1.67%
  ERYTHROCYTE COUNT: 5.38 x10E6/uL
  HEMATOCRIT: 34.05%
  HEMOGLOBIN: 12.75 G/DL
  LEUKOCYTE COUNT: 13.4 x10E3/uL
  LYMPHOCYTE: 88.33%
  MEAN CORPUSCULAR HEMOGLOBIN: 23.73 pg
  MEAN CORPUSCULAR HEMOGLOBIN CONCENTRATION: 37.43 G/DL
  MEAN CORPUSCULAR VOLUME: 63.4 fL
  MONOCYTE: 2.83%
  NEUTROPHIL: 7.17%
  NUCLEATED RED BLOOD CELLS: 0 /100WBC
  PLATELET COUNT: 1184.67 x10E3/uL
  ALANINE AMINOTRANSFERASE: 45.33 u/L
  ALBUMIN: 4.3 G/DL
  ALKALINE PHOSPHATASE: 388.83 u/L
  ASPARTATE AMINOTRANSFERASE: 84.83 u/L
  BLOOD UREA NITROGEN: 15.5 mg/dL
  CARBON DIOXIDE: 27 mmol/L
  CHLORIDE: 101.8 MEQ/L
  CHOLESTEROL: 76.67 mg/dL
  CREATINE PHOSPHOKINASE: 301 u/L
  CREATININE: 0.21 mg/dL
  GLUCOSE: 168.83 mg/dL
  LACTATE DEHYDROGENASE: 294.83 u/L
  LIPASE: 9.8 u/L
  PHOSPHORUS: 13.25 mg/dL
  POTASSIUM: 6.41 MEQ/L
  SODIUM: 143.72 MEQ/L
  TOTAL BILIRUBIN: 0.22 mg/dL
  TOTAL PROTEIN: 5.98 G/DL
[2]
  ABSOLUTE BASOPHIL: 0 CELLS/uL
  ABSOLUTE EOSINOPHIL: 190.67 CELLS/uL
  ABSOLUTE LYMPHOCYTE: 12549.5 CELLS/uL
  ABSOLUTE MONOCYTE: 276 CELLS/uL
  ABSOLUTE SEGMENTED NEUTROPHIL: 1067.17 CELLS/uL
  BASOPHIL: 0%
  EOSINOPHIL: 1.33%
  ERYTHROCYTE COUNT: 5.66 x10E6/uL
  HEMATOCRIT: 35.92%
  HEMOGLOBIN: 13.65 G/DL
  LEUKOCYTE COUNT: 14.08 x10E3/uL
  LYMPHOCYTE: 89%
  MEAN CORPUSCULAR HEMOGLOBIN: 24.12 pg
  MEAN CORPUSCULAR HEMOGLOBIN CONCENTRATION: 38.03 G/DL
  MEAN CORPUSCULAR VOLUME: 63.47 fL
  MONOCYTE: 2%
  NEUTROPHIL: 7.67%
  NUCLEATED RED BLOOD CELLS: 0.17 /100WBC
  PLATELET COUNT: 1251.67 x10E3/uL
  ALANINE AMINOTRANSFERASE: 43.33 u/L
  ALBUMIN: 4.22 G/DL
  ALKALINE PHOSPHATASE: 365.67 u/L
  ASPARTATE AMINOTRANSFERASE: 83.67 u/L
  BLOOD UREA NITROGEN: 18.17 mg/dL
  CARBON DIOXIDE: 28.67 mmol/L
  CHLORIDE: 103.5 MEQ/L
  CHOLESTEROL: 71.5 mg/dL
  CREATINE PHOSPHOKINASE: 284.5 u/L
  CREATININE: 0.21 mg/dL
  GLUCOSE: 161.67 mg/dL
  LACTATE DEHYDROGENASE: 259.67 u/L
  LIPASE: 9.5 u/L
  PHOSPHORUS: 12.45 mg/dL
  POTASSIUM: 6.49 MEQ/L
  SODIUM: 144.25 MEQ/L
  TOTAL BILIRUBIN: 0.2 mg/dL
  TOTAL PROTEIN: 6.1 G/DL
[3]
  ABSOLUTE BASOPHIL: 0 CELLS/uL
  ABSOLUTE EOSINOPHIL: 47 CELLS/uL
  ABSOLUTE LYMPHOCYTE: 6476.33 CELLS/uL
  ABSOLUTE MONOCYTE: 108 CELLS/uL
  ABSOLUTE SEGMENTED NEUTROPHIL: 402 CELLS/uL
  BASOPHIL: 0%
  EOSINOPHIL: 1%
  ERYTHROCYTE COUNT: 5.55 x10E6/uL
  HEMATOCRIT: 35.4%
  HEMOGLOBIN: 13.17 G/DL
  LEUKOCYTE COUNT: 7.03 x10E3/uL
  LYMPHOCYTE: 91.67%
  MEAN CORPUSCULAR HEMOGLOBIN: 23.73 pg
  MEAN CORPUSCULAR HEMOGLOBIN CONCENTRATION: 37.2 G/DL
  MEAN CORPUSCULAR VOLUME: 63.8 fL
  MONOCYTE: 1.67%
  NEUTROPHIL: 5.67%
  NUCLEATED RED BLOOD CELLS: 0 /100WBC
  PLATELET COUNT: 1224.33 x10E3/uL
  ALANINE AMINOTRANSFERASE: 45.33 u/L
  ALBUMIN: 4.27 G/DL
  ALKALINE PHOSPHATASE: 484.33 u/L
  ASPARTATE AMINOTRANSFERASE: 84.67 u/L
  BLOOD UREA NITROGEN: 13.67 mg/dL
  CARBON DIOXIDE: 28 mmol/L
  CHLORIDE: 103 MEQ/L
  CHOLESTEROL: 71 mg/dL
  CREATINE PHOSPHOKINASE: 192.33 u/L
  CREATININE: 0.18 mg/dL
  GLUCOSE: 148.33 mg/dL
  LACTATE DEHYDROGENASE: 120.67 u/L
  LIPASE: 9.33 u/L
  PHOSPHORUS: 12.27 mg/dL
  POTASSIUM: 6.28 MEQ/L
  SODIUM: 147.37 MEQ/L
  TOTAL BILIRUBIN: 0.2 mg/dL

— ChEMBL document CHEMBL3885881, “DrugMatrix”
